Reference: patent US11337963B2, “Compositions and methods of enhancing 5-hydroxytryptophan bioavailability” (Duke University, priority 2018, dated 2022)
Where two headings read alike, the source gives them in different places. Blank lines part the entries; values can stand above or below the compound they belong to.

What was measured:
[1] = tested on: aromatic amino acid decarboxylase enzyme (AAAD); conditions: after oral administration (Da Prada et al, 1987); cited from earlier work
[2] = animals; including kidney insufficiency and growth anomalies; cited from earlier work
brain 5-HIAA = assay: Brain (frontal cortex) 5-HIAA tissue levels in mice after 14 days of treatment; format: in vivo; conditions: for augmentation of the brain 5-HIAA tissue elevation induced by 5-HTP: carbidopa 2, 5 or 10 mg/kg/day added to 5-HTP 200 mg/kg/day, more pronounced in 5-HTHypo mice
Text: (§1) Mice: Adult mice were used, both wildtype (WT) mice with normal 5-HT levels and ‘5-HTHypo’ mice with reduced brain 5-HT synthesis and levels (Beaulieu et al, 2008). The 5-HTHypo mice are a naturalistic model of brain 5-HT deficiency, which is known to be a pathogenic factor in several CNS disorders, e.g. depression and suicide.
(§2) Drug treatments: Carbidopa was used as a PDI. To model oral drug delivery occurring in humans during a therapeutic scenario, 5-HTP and carbidopa was delivered via the mouse food (standard chow). This approach distributed the drug delivery over time, imparting a measure of ‘slow-release’ (aka sustained-, extended-, time-, controlled-release) delivery. 5-HTP was administered in a dose of 200 mg/kg/day. Carbidopa was administered in doses of 2, 5 or 10 mg/kg/day in addition to 5-HTP, to assess the effect of carbidopa on the outcomes of 5-HTP treatment. To assess the effect of carbidopa alone, groups of mice were also administered carbidopa 10 mg/kg/day, the highest carbidopa dose, without concomitant 5-HTP. Comparisons were made to untreated mice. Duration of all treatments was 14 days, which is considered chronic in mouse experiments.
(§3) Sample collection: During treatments blood samples were collected to assess plasma levels of 5-HTP and carbidopa. At end of treatments mice were euthanized and brain tissues (frontal cortex) were collected.
(§4) Quantitative analysis: Levels of plasma 5-HTP, plasma carbidopa, brain 5-HT, and brain 5-hydroxyindoleacetic acid (5-HIAA, major 5-HT metabolite) were quantified using HPLC, as described (Jacobsen et al, 2012b). The limits of detection for 5-HT and 5-HTP in plasma were 1 ng/ml and for carbidopa in plasma 2 ng/ml (FIG. 4C).

[3] = Carbidopa plasma levels in humans at therapeutic doses (literature); format: in vivo; conditions: reported human chronic studies with carbidopa and 5-HTP; extrapolated across references
[4] = Plasma 5-HTP levels in mice given 5-HTP and/or carbidopa via food for 14 days; format: in vivo; conditions: for augmentation of the 5-HTP plasma elevation induced by 5-HTP: carbidopa 2, 5 or 10 mg/kg/day added to 5-HTP 200 mg/kg/day, similar in WT and 5-HTHypo mice
Text: as §1, §2, §3, §4

[5] = HPLC electrochemical quantification of carbidopa in mouse plasma; format: in vivo, mice
Experimental: FIG. 4A-4D. HPLC electrochemical quantification of carbidopa in plasma. FIG. 4A: 10 ng/ml standard in perchloric acid. Carbidopa peak visible at 24 min. FIG. 4B: Plasma extract from mouse not treated with carbidopa. […] Baseline undulations at 24 min is detector noise. FIG. 4C: Plasma extract from a mouse not treated with carbidopa, but the plasma spiked with carbidopa to a concentration of 2 ng/ml prior to extraction. Carbidopa peak visible at 24 min. FIG. 4D: Plasma extract from mouse treated with 10 mg/kg/day carbidopa. […] Baseline undulations at 24 min is detector noise, as indicated.
as §2, §3, §4

[6] = cited from earlier work
brain 5-HT = assay: Brain (frontal cortex) 5-HT tissue levels in mice after 14 days of treatment; format: in vivo; conditions: for augmentation of the brain 5-HT tissue elevation induced by 5-HTP: carbidopa 2, 5 or 10 mg/kg/day added to 5-HTP 200 mg/kg/day, more pronounced in 5-HTHypo mice
Text: as §1, §2, §3, §4

[7] = animal studies (Shindo et al, 1977); cited from earlier work
[8] = cited from earlier work; remark: listed apart in the source
[9] = carbidopa 10 mg/kg/day alone, without 5-HTP, 14 days
[10] = steady state, therapeutic scenario
[11] = 5-HTP 200 mg/kg/day alone via food, 14 days, vs untreated

Structure (SMILES): NC(CO)C(=O)NNCc1ccc(O)c(O)c1O (centres unmarked) [benserazide]
potency as inhibitor of AAAD in the peripheral organs relative to carbidopa [1]: 10 fold | toxicity of chronic PDI treatment without levodopa [2]: significant toxic effects

average carbidopa plasma levels [3]: > 25 ng/mL | enhancing 5-HTP bioavailability and pharmacodynamic (brain 5-HT) effects ([4]; 5-HTP:carbidopa ratios of 20:1 to 100:1): effective | effect on plasma 5-HTP [4, 9]: no effects | augmentation of the 5-HTP plasma elevation induced by 5-HTP [4]: manifold and dose-dependently augmented | augmentation of the 5-HTP plasma elevation induced by 5-HTP ([4]; listed as Carbidopa): dose-dependently augmented | plasma carbidopa levels ([5]; carbidopa 10 mg/kg/day, the highest dose, limit of detection 2 ng/ml): < 2 ng/mL | carbidopa peak in HPLC of plasma extract (FIG. 4D) ([5]; mouse treated with 10 mg/kg/day carbidopa): No carbidopa peak visible | plasma exposure levels lower than usual systemically active levels ([5]; relative to 25 ng/ml): at least 12 times
Structure (SMILES): C[C@@](Cc1ccc(O)c(O)c1)(NN)C(=O)O [carbidopa]
effect on brain 5-HIAA (brain 5-HIAA; [9]): no effects | augmentation of the brain 5-HIAA tissue elevation induced by 5-HTP (brain 5-HIAA): manifold and dose-dependently augmented | augmentation of the brain 5-HIAA tissue elevation induced by 5-HTP (brain 5-HIAA; listed as Carbidopa): dose-dependently augmented | usual systemically active plasma levels ([6]; Verhagen et al, 2015, Yeh et al, 1989): 25 ng/mL | average plasma levels of carbidopa at maintenance doses [6, 10]: ≥ 25 ng/mL | range of average plasma levels of carbidopa at maintenance doses [6, 10]: 25 to 150 ng/mL | toxicity of chronic PDI treatment without levodopa [2]: significant toxic effects | effect on brain 5-HT (brain 5-HT; [9]): no effects | augmentation of the brain 5-HT tissue elevation induced by 5-HTP (brain 5-HT): manifold and dose-dependently augmented | augmentation of the brain 5-HT tissue elevation induced by 5-HTP (brain 5-HT; listed as Carbidopa): dose-dependently augmented

levels of plasma 5-HTP ([4]; 5-HTP 200 mg/kg/day alone via food, 14 days, vs untreated, WT and 5-HTHypo mice): elevated
Structure (SMILES): N[C@@H](Cc1c[nH]c2ccc(O)cc12)C(=O)O [5-HTP, 5-hydroxytryptophan]
levels of brain 5-HIAA (brain 5-HIAA; [11]): elevated | exogenously administered 5-HTP converted to 5-HT during transport over the intestinal wall [7]: more than 50% | oral bioavailability ([8]; 5-HTP (Gijsman et al, 2002)): modest | T1/2 (elimination half-life) ([8]; 5-HTP in humans, oral): ~2 h | TMax ([8]; 5-HTP in humans, oral): ~1 h | T1/2 ([8]; immediate-release oral 5-HTP): about 2 hours | TMax ([8]; immediate-release oral 5-HTP): 1 to 2 h | levels of brain 5-HT (brain 5-HT; [11]): elevated
